On the set-up of this series: species or system human. The note with it: in vivo. The method, then:
Ten (10) healthy non smoking students (ranging in age from 22-27 years), were subjected to the following two treatments:
(A) Four (4) weeks of ingesting one gelatin capsule at their noonday meal, containing 20 mg of crystalline lutein dispersed in soybean oil and after a 12 hours fast (overnight) blood samples were taken early the next morning for plasma analysis.
(B) After a two (2) week interval washout period, the same group of subjects were given, during a period of four (4) weeks, a gelatin capsule containing a micellar dispersion of lutein diacetate (prepared as described in example 3) in soybean oil. Each capsule contained 24.2 mg of lutein diacetate and was ingested at lunch time. After a twelve (12) hour fast, blood samples were collected in the early morning of the next day for plasma analysis.

Turning to lutein diacetate, the “ratio of the average absorption of the lutein diacetate divided by the average absorption of the free lutein” value is 2.81 times.

The values are drawn from patent publication US7435846B2, “Absorption and bioavailability of carotenoids, formulations and applications” (Industrial Organica, S.A. De C.V., priority 2006, dated 2008).
